From US20090239839A1, “RECEPTOR ANTAGONIST” (TAKEDA PHARMACEUTICAL COMPANY LIMITED, priority 2003, published 2009)
Counter-ions that a name gives are not always drawn.

Experiments:
human-type OT7T022 [1] = target: T1, human-type OT7T022 (Homo sapiens, UniProt Q9GZQ6); experiment: Antagonist activity in cAMP production inhibiting test system using human-type OT7T022-expressing CHO cell; assay type: cell-based; settings: agonist human-type RFRP-3-8 20 nM + forskolin 2 μM, intracellular cAMP amount
T1 construct: expressed in transfected cells; host or cells: CHO cells (membrane fraction)
T1 sequence (Q9GZQ6 whole entry): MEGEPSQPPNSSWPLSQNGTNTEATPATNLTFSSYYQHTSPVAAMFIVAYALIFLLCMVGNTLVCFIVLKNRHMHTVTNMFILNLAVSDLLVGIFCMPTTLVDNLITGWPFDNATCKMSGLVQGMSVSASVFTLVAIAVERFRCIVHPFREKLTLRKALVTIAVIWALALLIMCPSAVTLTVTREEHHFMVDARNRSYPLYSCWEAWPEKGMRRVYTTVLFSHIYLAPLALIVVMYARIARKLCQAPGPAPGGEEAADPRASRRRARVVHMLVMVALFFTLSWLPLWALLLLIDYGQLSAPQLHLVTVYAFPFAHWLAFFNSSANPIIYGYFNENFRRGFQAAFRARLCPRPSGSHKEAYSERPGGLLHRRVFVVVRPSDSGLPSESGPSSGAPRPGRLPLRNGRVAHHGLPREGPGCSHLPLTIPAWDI
Experimental: Test of Antagonist Activity of Compound in Camp Production Inhibiting Test System Using Human-Type OT7T022-Expressing CHO Cell
Antagonist activity of a test compound was measured in an intracellular cAMP production inhibiting test system of a CHO cell expressing human-type OT7T022. In the cAMP production inhibiting test, as an assay buffer, a Hanks' balanced salt solution (Gibco) to which 20 mM HEPES pH 7.4, 0.1% bovine serum albumin, and 0.2 mM 3-isobutyl-1-methylxanthine (Sigma) had been added, was used. A sample compound was adjusted with an assay buffer so that the final concentration became 10^−5M, 10^−6M, 10^−7M, 10^−8M, or 10^−10M. An agonist: human-type RFRP-3-8 (Val-Pro-Asn-Leu-Pro-Gln-Arg-Phe-amide) was diluted with an assay buffer obtained by adding 4 μM (final concentration 2 μM) forscoline to 40 nM (final concentration 20 nM). A human-type OT7T022-expressing CHO cell was passaged on a 96-well plate at 4×10^4/well, and cultured at 37° C., 5% CO2 and 95% air for one day. The plate which had been cultured for one day was washed with an assay buffer (150 μl) two times and, after 30 minutes, this was cultured for 30 minutes at 37° C. and 100% air. […] An intracellular cAMP amount was measured according to a protocol of the present kit using cAMP-Screen™ system (ABI). […]

human-type OT7T022 [2] = target: T1, human-type OT7T022; experiment: Binding inhibiting activity using human-type OT7T022-expressing CHO cell; settings: 125I-labeled Y-RFRP-3 100 pM, membrane fraction, room temperature 1.5 hours; read-out: IC50 value (binding inhibiting rate)
Experimental: Assessment of Binding Inhibiting Activity of Test Compound Using Human-Type OT7T022-Expressing CHO Cell
Twenty μm of a peptide (Y-RFRP-3) (sequence: Tyr-Val-Pro-Asn-Leu-Pro-Gln-Arg-Phe-amide) (0.1 mM) in which a Tyr residue had been added to a N-terminus of hRFRP-3-8 (sequence: Val-Pro-Asn-Leu-Pro-Gln-Arg-Phe-amide) having binding inhibiting activity equivalent to that of endogenous human-type RFRP-3 (hRFRP-3-28) for human-type OT7T022-expressing CHO cell and 10 μl of distilled water were mixed, 20 μl of a lactoperoxidase solution (Sigma, prepared using 0.1 M HEPES-NaOH, pH 7.0 in 10 μg/mL), 10 μl of Iodine-125 (Amersham, IMS-30, 74 MBq), and 20 μl of 0.005% hydrogen peroxide (Wako Pure Chemical Industries, Ltd.) were successively mixed therein, the mixture was allowed to stand at room temperature for 10 minutes, 600 μl of 0.1% TFA-water was added, this was separated by reverse phase HPLC, a peak of the labeled form was collected, an equivalent amount of a buffer for a binding test (50 mM TrisHCl (pH 7.5), 0.1% BSA, 5 mM EDTA, 0.5 mM PMSF, 20 μg/mL leupeptin, 0.1 μg/mL pepstatin A, […]) was added, and this was immediately stored on ice. A part thereof was 1/100 diluted, radioactivity was measured with a γ-counter, and the remaining authentic product was distributed, which was stored at −30° C.
To a 96-well microplate were added 1 μg of a membrane fraction, a compound and Y-RFRP-3 labeled with ^125I, which had been diluted with a reaction buffer (50 mM Tris-HCl, 5 mM EDTA, 0.1% BSA, 0.5 mM PMSF, 20 μg/ml leupeptin, 0.1 μg/ml pepstatin A, 4 μg/ml E-64, 10 mM MgCl2, pH 7.5), to 100 pM to react them at room temperature for 1.5 hours. For measuring non-specific binding, non-labeled Y-RFRP-3 was further added to […]. Then, a membrane fraction was transferred to a unifilter GF/C (Perkin Elmer) by filtering the reaction mixture using a cell harvester (Perkin Elmer), and this was washed with a cooled 50 mM Tris buffer (pH 7.5) five times. The filter was dried, Microsinti (Packard) was added to the filter, and radioactivity was measured with Topcount (Packard).
A binding inhibiting rate (IC50 value) of a test compound is shown in [Table 1].

rat-type OT7T022 = target: T2, rat-type OT7T022 (Rattus norvegicus, UniProt Q9EP86); experiment: Binding inhibiting activity using rat-type OT7T022-expressing CHO cell membrane fraction; settings: iodine-labeled Y-RFRP-3 100 pM, membrane fraction 0.75 μg/well
T2 construct: expressed in transfected cells; host or cells: CHO cells (membrane fraction)
T2 sequence (Q9EP86 whole entry): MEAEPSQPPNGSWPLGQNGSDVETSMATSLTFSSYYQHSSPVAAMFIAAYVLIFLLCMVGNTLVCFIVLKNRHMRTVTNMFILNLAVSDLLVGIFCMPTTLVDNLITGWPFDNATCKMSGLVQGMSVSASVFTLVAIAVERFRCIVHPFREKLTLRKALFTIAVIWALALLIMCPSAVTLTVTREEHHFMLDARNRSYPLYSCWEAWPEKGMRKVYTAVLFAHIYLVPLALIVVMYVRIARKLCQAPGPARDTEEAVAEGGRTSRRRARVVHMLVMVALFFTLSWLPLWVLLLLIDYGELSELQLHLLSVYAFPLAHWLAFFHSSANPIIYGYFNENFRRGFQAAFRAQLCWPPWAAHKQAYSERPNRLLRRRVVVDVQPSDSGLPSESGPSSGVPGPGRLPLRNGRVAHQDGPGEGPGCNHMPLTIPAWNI
Experimental: Assessment of Binding Inhibiting Activity of Test Compound Using Rat-Type OT7T022-Expressing CHO Cell
A flask in which a rat-type OT7T022-expressing CHO cell had been cultured was washed with 5 mM EDTA/PBS, cells were peeled with 5 mM EDTA/PBS, and cells were recovered by centrifugation, suspended in 25 mL of a buffer for preparing a membrane fraction (50 mM Tris-HCl, pH 7.5, 5 mM EDTA, 0.5 mM PMSF (manufactured by Wako Pure Chemical Industries, Ltd.), […] (manufactured by Peptide Laboratory), 0.1 μg/mL pepstatin A (manufactured by Peptide Laboratory), 4 μg/mL E-64 (manufactured by Peptide Laboratory)), and homogenized on an ice using Polytron (12,000 rpm, 15 seconds×3 times). This was centrifuged in a high speed cooling centrifuge at 4° C. and 1,000 g for 10 minutes, and the supernatant was recovered. 25 mL of a buffer for preparing a membrane fraction was added to precipitates, and the supernatant was recovered by the same procedure. These supernatants were combined, subjected to a cell strainer, dispensed into tubes for a supercentrifuge, and centrifuged at 4° C. and 100,000 g for 1 hour. The pellet was suspended in a small amount of a buffer for preparing a membrane fraction, this was suspended using a Teflon (registered trade mark) homogenizer, a protein amount was measured using a part, and the remaining was dispensed, and stored at −80° C.
Using an assay buffer (50 mM Tris-HCl, pH 7.5, 5 mM EDTA, 0.5 mM PMSF, 20 μg/mL leupeptin, 0.1 μg/mL pepstatin A, 4 μg/mL E-64, 0.1% bovine serum albumin, 10 mM MgCl2), a membrane fraction of a rat-type OT7T022-expressing CHO cell was diluted to the final concentration of 0.75 μg/well, and iodine-labeled Y-RFRP-3 was diluted to the final concentration of 100 pM. Regarding a sample compound, a 10^−2M or 10^−3M stock solution was diluted with an assay buffer so that the final concentration became 10^−5M, 10^−6M, 10^−7M, 10^−8M, 10^−9M, 10^−10M or 10^−11M. For non-specific binding, hRFRP-3-8 having the final concentration of 10^−5M was prepared. Using a polypropylene 96-well plate, a prepared sample solution, a non-specific binding solution, and 50 μl of an assay buffer for total binding were dispensed, 25 μl of an iodine-labeled form diluent was added, the mixture was stirred, 25 μl of a rat-type OT7T022-expressing CHO cell membrane fraction solution was dispensed, and this was stirred, and incubated at room temperature for 1.5 hours. This was transferred to a unifilter (Perkin Elmer) pre-wetted with a washing buffer (50 mM Tris-HCl, pH 7.5) using a harvester for a 96-well plate (Packard), and this was washed with a washing buffer six times, and sufficiently dried. 50 μl of Microscinti O (Packard) was dispensed, radioactivity was measured with Top Count (Packard), and data were analyzed in a triplicate manner. Binding inhibiting activity (IC50 value) of a test compound for rat-type OT7T022 is shown in [Table 3].

IC50 (human-type OT7T022 [1]): < 1000 nM
IC50 (human-type OT7T022 [2]): < 1000 nM
IC50 (rat-type OT7T022): < 1000 nM
Compound: COc1c(OCCCNCCCc2ccccc2)cccc1[C@H]1O[C@H](CC(=O)NCc2ccccc2F)C(=O)N(CC(C)(C)C)c2ccc(Cl)cc21 (relative stereo) [Example 3, 2-(3,5-trans-7-Chloro-1-(2,2-dimethylpropyl)-5-{2-methoxy-3-[3-(3-phenylpropylamino)propoxy]phenyl}-2-oxo-1,2,3,5-tetrahydro-4,1-benzoxazepin-3-yl)-N-(2-fluorobenzyl)acetamide hydrochloride]
